The values that follow are results of earlier work, collected in patent publication US20210120811A1, “AQUEOUS CAPSULE SUSPENSION CONCENTRATES CONTAINING A HERBICIDAL SAFENER AND A PESTICIDAL ACTIVE SUBSTANCE” (priority 2018, published 2021).

For the compound `CC1(C)CON(Cc2ccc(Cl)cc2Cl)C1=O` [DCPMI, 2-[(2,4-dichlorophenyl)methyl]-4,4′-dimethyl-3-isoxazolidinone], the water solubility is recorded as 39.5 ppm.
